Test results reported in paper PMC9309159, “Identification of heptapeptides targeting a lethal bacterial strain in septic mice through an integrative approach” (Signal Transduction and Targeted Therapy, 2022).
Entries after “also recorded” stand apart in the source; their conditions may differ. Ends that are not written are not given here. * marks the point of attachment. Biotin = O=C1N[C@H]2[C@H](CS[C@H]2CCCCC(=O)*)N1

Experiments:
DEGP protein = experiment: SPRi assay of peptide binding to DEGP protein; design: species or system E. coli MSI001; conditions: control peptide immobilized on chip, value printed in picture of Fig. 8e
Experimental: (§1) Protein profiles were determined by cPCoA distance among samples and characterized by close intragroup distances among samples. b Hierarchical clustering analysis of proteins from the HEE, VTK and input groups. […] Label-free mass spectrometry was used to quantitate proteins from the HEE, VTK and input groups. Red represents high expression, while blue represents low expression. c Volcano plot of proteins from the VTK group and HEE group. […] DEGP or DEGQ protein at different concentrations (5 nmol/L, 10 nmol/L, 20 nmol/L) in solution flowed on an SPRi chip. Binding data were collected and analyzed by commercial SPRi analysis software (Plexera SPR Data Analysis Model, Plexera, USA).
(§2) To measure the binding affinity of peptides with targeted proteins, a PlexArray HT A100 (Plexera, USA) Surface Plasmon Resonance imaging (SPRi) system was used to monitor the whole procedure in real time. Briefly, a chip with a well-prepared peptide microarray was assembled with a plastic flow cell for sample loading. The operation details for the PlexArray HT were as described previously.[65] The purified protein samples were prepared at determined concentrations in PBS running buffer, while glycine-HCl buffer (10 mmol/L, pH 2.0) was used for regeneration. Binding data were collected and analyzed by SPR Data Analysis Module software (Plexera, USA). […]

DEGQ protein = experiment: SPRi assay of peptide binding to DEGQ protein; design: species or system E. coli MSI001; conditions: control peptide immobilized on chip, value printed in picture of Fig. 8e
Experimental: as §1, §2

bacterial strain MSI001 = experiment: In vitro antibacterial assay (colony counting); format: cell-based, Escherichia coli; conditions: 1 × 10^3 CFU, peptide 0.25, 0.5, 1 μmol/L, 37 °C, 1-8 h, colony count, n = 3
Experimental: Fig. 6 Antimicrobial activity of the C7C-LL37 fusion peptides in vitro. a Primary structures and physical properties of the C7C and LL37 fusion peptides, including LL37, VTK-LL37, LL37-VTK, KYY-LL37 and LL37-KYY, ISS-LL37, INS-LL37. Net charge, PI and GRAVY values were acquired as described above. b Inhibitory effect of C7C-LL37 fusion peptides on bacterial growth. A C7C-LL37 fusion peptide or LL37 alone was added to the cultured bacterial strain MSI001 (1 × 10^3 CFU) at final concentrations of 0.25 μmol/L, 0.5 μmol/L and 1 μmol/L. Sterile DPBS was used as control. After incubation with the C7C-LL37 or LL37 peptides at 37 °C for different times (1-8 h), bacterial colonies were counted. n = 3. *P < 0.05, VTK-LL37 group compared to LL37 group; ^#P < 0.05, LL37-VTK group compared to LL37 group. c, d Inhibitory effect of VTK-LL37 on biofilm formation. The VTK-LL37 or LL37 peptide was added to the bacterial culture at a final concentration of 0-4 μmol/L and incubated at 37 °C for 3 days. Bacterial culture medium and the peptides were refreshed every day. The biofilm was stained with 1% crystal violet, and the precipitates were dissolved in 95% ethanol, followed by detection of absorbance at 570 nm (A570) (c). Moreover, the biofilm was observed under a microscope (d). n = 5. *P < 0.05, VTK-LL37 group compared to LL37 group […]

[1] = biological target: T1, DEGP protein, purified (SPRi analyte) (E. coli (strain MSI001), UniProt P0C0V0 27-474); experiment: SPR; conditions: both partners purified
T1 sequence (looked up): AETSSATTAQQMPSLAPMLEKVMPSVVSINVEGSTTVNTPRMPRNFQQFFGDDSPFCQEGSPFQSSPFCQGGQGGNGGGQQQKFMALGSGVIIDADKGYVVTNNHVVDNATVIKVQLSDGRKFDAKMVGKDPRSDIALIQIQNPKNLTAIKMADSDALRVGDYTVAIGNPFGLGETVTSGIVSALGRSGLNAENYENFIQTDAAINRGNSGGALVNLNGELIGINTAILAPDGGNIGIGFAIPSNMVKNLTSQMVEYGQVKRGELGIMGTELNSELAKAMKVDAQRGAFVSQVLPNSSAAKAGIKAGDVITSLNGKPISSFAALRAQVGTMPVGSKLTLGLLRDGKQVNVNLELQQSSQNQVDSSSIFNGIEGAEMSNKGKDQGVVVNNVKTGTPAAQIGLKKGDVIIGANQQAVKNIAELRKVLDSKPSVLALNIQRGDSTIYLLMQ

[2] = biological target: T2, DEGQ protein, purified (SPRi analyte) (E. coli (strain MSI001), UniProt P39099 28-455); experiment: SPR; conditions: both partners purified
T2 sequence (looked up): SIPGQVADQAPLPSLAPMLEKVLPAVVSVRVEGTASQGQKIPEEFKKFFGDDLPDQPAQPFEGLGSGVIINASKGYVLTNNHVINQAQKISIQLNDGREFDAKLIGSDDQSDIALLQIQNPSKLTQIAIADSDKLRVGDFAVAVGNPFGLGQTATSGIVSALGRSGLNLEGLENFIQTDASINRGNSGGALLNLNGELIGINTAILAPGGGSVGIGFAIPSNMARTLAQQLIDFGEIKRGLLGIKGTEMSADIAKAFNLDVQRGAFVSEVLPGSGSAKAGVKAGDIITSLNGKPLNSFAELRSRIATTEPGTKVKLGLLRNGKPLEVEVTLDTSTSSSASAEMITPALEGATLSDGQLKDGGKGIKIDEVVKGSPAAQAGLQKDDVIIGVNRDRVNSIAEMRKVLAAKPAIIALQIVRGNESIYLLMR

Molecule: Biotin-CHEEWLPAC (cysteine pairing not given here) [control HEE heptapeptide]
- Kd (DEGP protein): 5.25 µM
- Kd (DEGQ protein): 1000 nM

Molecule: LLGDFFRKSKEKIGKEFKRIVQRIKDFLRNLVPRTESVPGVGCVTKLGSLC [LL37-VTK]
- inhibitory effect on bacterial growth of MSI001 (bacterial strain MSI001): inhibited MSI001 bacterial growth but also showed stronger antibiotic activity than LL37 alone in the early stage (1-3 h); also recorded: stronger bacteriostatic activity than other LL37 fusion peptides

B1: VTK heptapeptide VTKLGSL, synthesized (immobilised on the SPRi chip) (peptide)
peptide: VTKLGSL
notes: also called VTK peptide; source: synthetic peptide
- Kd [1]: 15.8 nM
- Kd [2]: 1.73 nM
